Type in all cases: cell-based, Endothelial cell
The target in one assay is T1, E-selectin (Homo sapiens, UniProt P16581).
T1 sequence (P16581 whole entry): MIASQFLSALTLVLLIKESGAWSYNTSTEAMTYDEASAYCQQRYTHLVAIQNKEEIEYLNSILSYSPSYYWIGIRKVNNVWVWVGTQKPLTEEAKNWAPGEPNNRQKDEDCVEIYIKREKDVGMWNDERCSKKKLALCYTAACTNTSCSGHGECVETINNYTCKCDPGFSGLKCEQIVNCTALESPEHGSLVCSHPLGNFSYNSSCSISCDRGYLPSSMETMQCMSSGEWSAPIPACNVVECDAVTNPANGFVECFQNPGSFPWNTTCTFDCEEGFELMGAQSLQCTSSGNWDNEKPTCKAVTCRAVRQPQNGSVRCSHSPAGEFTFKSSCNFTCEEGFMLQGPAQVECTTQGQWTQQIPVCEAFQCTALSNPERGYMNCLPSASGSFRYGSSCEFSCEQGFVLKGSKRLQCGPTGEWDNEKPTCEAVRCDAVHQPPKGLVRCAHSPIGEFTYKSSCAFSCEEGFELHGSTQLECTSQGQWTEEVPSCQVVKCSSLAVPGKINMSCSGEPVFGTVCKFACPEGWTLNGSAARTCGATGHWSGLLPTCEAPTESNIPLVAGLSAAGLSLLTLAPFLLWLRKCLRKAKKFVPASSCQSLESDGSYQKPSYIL
Kind of assay: Inhibitory activity against E-selectin expressed in endothelial cells.

A further assay deals with T2, P-selectin (Homo sapiens, UniProt P16109).
T2 sequence (P16109 whole entry): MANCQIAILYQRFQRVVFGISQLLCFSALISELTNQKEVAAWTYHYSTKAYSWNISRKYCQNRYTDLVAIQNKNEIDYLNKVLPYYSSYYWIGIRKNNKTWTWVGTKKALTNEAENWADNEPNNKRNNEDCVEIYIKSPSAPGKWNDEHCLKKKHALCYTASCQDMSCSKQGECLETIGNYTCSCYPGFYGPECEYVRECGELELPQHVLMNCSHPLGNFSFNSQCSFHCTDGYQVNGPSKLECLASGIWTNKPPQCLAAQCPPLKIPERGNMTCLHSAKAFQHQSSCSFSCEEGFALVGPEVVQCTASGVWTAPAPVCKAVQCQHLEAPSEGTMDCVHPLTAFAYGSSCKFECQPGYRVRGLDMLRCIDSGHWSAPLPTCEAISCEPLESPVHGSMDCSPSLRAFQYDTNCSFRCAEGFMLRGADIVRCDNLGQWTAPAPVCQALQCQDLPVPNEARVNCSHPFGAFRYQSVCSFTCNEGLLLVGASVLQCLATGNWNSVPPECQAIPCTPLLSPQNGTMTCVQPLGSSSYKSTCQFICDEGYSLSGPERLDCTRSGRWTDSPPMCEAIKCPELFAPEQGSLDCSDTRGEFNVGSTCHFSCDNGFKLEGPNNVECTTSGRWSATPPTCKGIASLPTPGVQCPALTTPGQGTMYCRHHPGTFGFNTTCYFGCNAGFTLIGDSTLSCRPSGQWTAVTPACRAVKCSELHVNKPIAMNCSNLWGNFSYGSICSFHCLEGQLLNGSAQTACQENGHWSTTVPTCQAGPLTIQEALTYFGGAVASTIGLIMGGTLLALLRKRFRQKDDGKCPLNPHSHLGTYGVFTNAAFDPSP
Kind of assay: Inhibitory activity against Selectin P expressed in endothelial cells.

The target of the next assay is T3, L-selectin (Homo sapiens, UniProt P14151).
T3 sequence (P14151 whole entry): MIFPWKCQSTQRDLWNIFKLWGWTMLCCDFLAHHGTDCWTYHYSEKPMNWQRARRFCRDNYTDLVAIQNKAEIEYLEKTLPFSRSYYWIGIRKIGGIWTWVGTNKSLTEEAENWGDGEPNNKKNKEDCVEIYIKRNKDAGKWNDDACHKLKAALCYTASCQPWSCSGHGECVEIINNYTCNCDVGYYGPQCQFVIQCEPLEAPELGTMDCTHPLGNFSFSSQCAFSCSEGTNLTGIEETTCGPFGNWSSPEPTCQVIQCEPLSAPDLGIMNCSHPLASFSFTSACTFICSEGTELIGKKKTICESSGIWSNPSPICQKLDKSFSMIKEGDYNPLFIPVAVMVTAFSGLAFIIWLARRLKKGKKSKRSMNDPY
Kind of assay: Inhibitory activity against Selectin L expressed in endothelial cells.

From ChEMBL document CHEMBL1129928, “Selectin-ligand interactions revealed by molecular dynamics simulation in solution” (J Med Chem, 1997) come the findings set out here.

pIC50: −log10 of the molar value. A value given as a limit tells only on which side of the number the result lay.

For the compound `C[C@@H]1O[C@@H](O[C@@H]2[C@H](O)[C@H](O)O[C@@H](CO)[C@H]2O[C@@H]2O[C@@H](CO)[C@H](O)[C@H](OS(=O)(=O)O)[C@@H]2O)[C@@H](O)[C@@H](O)[C@@H]1O`, the pIC50 (as a rule, −log10 of the IC50, conventionally taken in molar units) at E-selectin was less than 3.00; at P-selectin, 3.52; against L-selectin, less than 3.00.

`CCCCCCCCCCCCCCC(CCCCCCCCCCCCCC)CO[C@@H]1O[C@H](CO)[C@@H](O[C@@H]2O[C@H](CO)[C@H](O)[C@H](OS(=O)(=O)O)[C@H]2O)[C@H](O[C@@H]2O[C@@H](C)[C@@H](O)[C@@H](O)[C@@H]2O)[C@H]1O`: the pIC50 on E-selectin is 3.55; on P-selectin it was 4.00; against L-selectin, 4.52.

With `CC(=O)N[C@H]1[C@H]([C@H](O)[C@H](O)CO)O[C@@](O[C@@H]2[C@H](O)[C@H](O[C@H]3[C@H](O[C@@H]4O[C@@H](C)[C@@H](O)[C@H](O)[C@@H]4O)[C@H](NC(C)=O)C(O)O[C@H]3CO)O[C@@H](CO)[C@@H]2O)(C(=O)O)C[C@H]1O` (some centres undefined), the negative logarithm of the IC50 (pIC50) is 3.22 at E-selectin, less than 3.00 against P-selectin and less than 3.00 on L-selectin.
